Measurements reported in patent publication EP0565593B1, “REDUCING PESTICIDAL INTERACTIONS IN CROPS” (priority 1990, dated 1992).
Where “and” joins values, the source holds several entries; their conditions need not be identical. Equal values may be shown once. Read-outs that look alike come from different tables or passages of the source.

Assays:
[1] = test system: Corn
[2] = test system: Shattercane (SHCA); assay type: in vivo
[3] = test system: Giant foxtail (GIFT); test: whole plant or invertebrate; assay type: in vivo; conditions: for % Inhibition GIFT: in vivo
[4] = test system: Velvetleaf (VELE); assay type: in vivo, Abutilon theophrasti
[5] = test system: Corn; test: Greenhouse test Procedure VII: biocide and antidote in furrow, herbicide POE (Examples 39-42, 48-50, 56-58; Tables 38-41, 47-49, 55-57); assay type: in vivo; conditions: C (COUNTER) + antidote in furrow
Description: This procedure describes interaction among herbicide, biocide and antidote when the biocide and the antidote is applied to a soil furrow containing crop seed before emergence of the crop and the herbicide is applied after emergence of the crop and weeds. The soil and planting depth was described in Procedure IV. The containers for comparison, the biocide and antidote applications to soil furrows were described in Procedure VI. In this procedure, the seed beds of the first, second, third and fourth containers are covered by soil layers not treated with herbicide. The containers were then placed on a bench in a greenhouse and subirrigated as required for the duration of the test. The herbicide, dispersed or dissolved in water containing 0.25% v/v nonionic surfactant (X-77) was applied by a track sprayer (187 L/ha) to the emerged plants of the second, third and fourth containers about five days after planting. All treatments were run in duplicate. Plant response was observed according to Procedure IV. Variations in this procedure will be noted in the examples.
In this example, tests were conducted according to Procedure VII for the POE application of the herbicides following in-furrow application of COUNTER® 15G insecticide (BIOCIDE No. 1) and the antidote on the pre-planted test seeds. In this test, the herbicides were Nos. 1 (MON-12000), 10 (ALLY®) and #4 (HARMONY®) and the Antidote Nos. 1, 7, 12 and 33.
These in-furrow treatments comprised a 50-50 mix of blended granules of COUNTER with and without 5G granular antidotes at 7.4 + 7.4 mg/cm or 1.1 + 0.37 mg active ingredient (a.i.)/cm. The in-furrow initiation of the test was followed five (5) days later with POE application of the herbicides; observations were made eight (8) days later.
In another test, conducted simultaneously with that in Example 39, Herbicide Nos. 5 (chlorimuron ethyl, active ingredient in CLASSIC® herbicide), 7 (nicosulfuron, active ingredient in ACCENT® herbicide) and 15 (tribenuron methyl, active ingredient in EXPRESS® herbicide) were substituted as test herbicides.
In this example, using the same procedure as above, the following imidazolinone herbicides were used with the same insecticide/biocide and antidotes as above: Herb. No. 16 (imazaquin, a.i. in SCEPTER® herbicide; No. 19 (Code No. AC 222293, a.i. in ASSERT® herbicide); No. 6 (imazethapyr, a.i. in PURSUIT® herbicide and No. 18 (imazapyr, a.i. in ARSENAL® herbicide). Test results are shown in Table 40. Table 40
This example describes the testing of the above antidotes used in Examples 39-41 to safen negative synergy interactions between representative species of the class of herbicidal compounds identified as azolopyrimidine sulfonamides and COUNTER 15G. The same procedure used in the above examples was conducted in this test. In this test, the herbicides were formulated in 17% acetone and 83% water with 0.25% v/v X-77 surfactant.
In these tests (according to Procedure VII) the safeners in solution with acetone were applied in furrow to the soil, followed by COUNTER 15G granules at 227 g/305 m (8 oz./1000'). Applications were made in alternate rows in two separate 13.7 cm x 27.7 cm pans containing Dupo silt loam. Pans were seeded 1.3 cm deep, placed on benches in a greenhouse and subirrigated. BEACON was formulated in water with 0.25% v/v X-77 surfactant and applied by track sprayer at a rate of 187 L/Ha (20 gal/A). Weed species in this test were giant foxtail, shattercane and velvetleaf. The herbicide was applied five (5) days after PPI initiation and observation of test result (shown in Table 47) made eight (8) days later.
In Table 47 COUNTER 15G is abbreviated as "C" and the antidotes as "A" in the column headings which indicate the "C + A" ratios used in the tests. Control and COUNTER treatments are average of four (4) replications and COUNTER + Antidote treatments, average of 2 reps. […]

[6] = Antidote 4.48 + Biocide No. 1 8.96 Kg/Ha PPI, Herb. No. 8 0.07, 5 DAP, before herbicide application
[7] = Antidote 4.48 + Biocide No. 1 8.96 Kg/Ha PPI, Herb. No. 8 0.07 POE, 13 DAP
[8] = Antidote 4.48 + Biocide No. 1 8.96 Kg/Ha PPI, Herbicide No. 7 0.28 POE, 13 days after planting
[9] = Herb. […], 5 DAP, before herbicide application
[10] = Table 14: Herbicide No. 7 (ACCENT) 0.84 Kg/Ha POE + Biocide No. 2 8.96 Kg/Ha PPI + antidote 4.48 Kg/Ha PPI, 13 days after planting, 8 days after herbicide
[11] = […], 13 days after planting, 8 days after herbicide
[12] = […], observed 10 days after herbicide application

SMILES | % Inhibition 5 DAP Corn [1, 6] [%] | % Inhibition 13 DAP Corn [1, 7] [%] | % Inhibition Corn [1, 8] [%] | % Inhibition 5 DAP Corn [1, 9] [%] | % Inhibition Corn [1, 10] [%] | % Inhibition Corn [1, 11] [%] | % Inhibition Corn [1, 12] [%] | % Inhibition 5 DAP Corn ([1]; in vivo) [%] | % Inhibition 13 DAP Corn ([1]; in vivo) [%] | % Inhibition 5 DAP SHCA [2, 6] [%] | % Inhibition 13 DAP SHCA [2, 7] [%] | % Inhibition SHCA [2, 8] [%] | % Inhibition 5 DAP SHCA [2, 9] [%] | % Inhibition SHCA [2, 10] [%] | % Inhibition SHCA [2, 11] [%] | % Inhibition SHCA [2, 12] [%] | % Inhibition 5 DAP SHCA ([2]; in vivo) [%] | % Inhibition 13 DAP SHCA ([2]; in vivo) [%] | % Inhibition GIFT [3] | % Inhibition 5 DAP VELE [4, 6] [%] | further results
C=CCN(CC=C)C(=O)C(Cl)Cl [compound 2] | 10 | 50 | 30 | 0 | 20 | 15 | 60 | 20 | 45 | 0 | 85 | 75 | 0 | 75 | 90 | 65 | 20 | 85 | 50% and 55% and 80% and 60% and 70% and 90% | 0 | % Inhibition 13 DAP VELE [4, 7]: 95%; % Inhibition VELE [4, 8]: 65%; % Inhibition 5 DAP VELE [4, 9]: 0%; % Inhibition VELE [4, 10]: 70%; % Inhibition VELE [4, 11]: 60%; % Inhibition VELE [4, 12]: 80%; % Inhibition 5 DAP VELE ([4]; in vivo): 0%; % Inhibition 13 DAP VELE ([4]; in vivo): 85%
Clc1cc(Cl)nc(-c2ccccc2)n1 [compound 31] | 10 | 75 | 65 | 0 | 45 | 30 | 70 | 15 | 65 | 0 | 80 | 75 | 0 | 75 | 85 | 65 | 20 | 80 | 55% and 80% and 85% and 75% and 95% and 60% | 0 | activity in reducing corn injury ([1]; primisulfuron POE + biocides PPI, Tables 8-10): either inactive or weakly active; % Inhibition SHCA ([2]; in vivo): 85% and 50% and 60% and 45%; % Inhibition 13 DAP VELE [4, 7]: 85%; % Inhibition VELE [4, 8]: 65%; % Inhibition 5 DAP VELE [4, 9]: 0%; % Inhibition 13 DAP VELE ([4]; Herb. […], 13 DAP, after herbicide application): 95%; % Inhibition VELE [4, 10]: 65%; % Inhibition VELE [4, 11]: 65%; % Inhibition VELE [4, 12]: 80%; % Inhibition 5 DAP VELE ([4]; in vivo): 0%; % Inhibition 13 DAP VELE ([4]; in vivo): 85%
CCOP(=S)(OCC)SCSCC [Biocide No. 10, O,O-Diethyl S-[(ethylthio)methyl]phosphorodithioate, reference compound] |  |  |  |  |  |  |  |  |  |  |  |  |  |  |  |  |  |  | 30% and 20% |  | % Inhibition SHCA ([2]; in vivo): 25%
O=C(O)COC(c1ccccc1)c1ccccc1 [compound 78] |  |  |  |  |  |  |  |  |  |  |  |  |  |  |  |  |  |  |  |  | % Inhibition Corn ([5]; C:A Ratio 20, ACCENT 0.56 Kg/Ha POE): 25%; % Inhibition Corn ([5]; C:A Ratio 20, BEACON 0.28 Kg/Ha POE): 5%; % Inhibition Corn ([5]; C:A Ratio 40, ACCENT 0.56 Kg/Ha POE): 20%; % Inhibition Corn ([5]; C:A Ratio 40, BEACON 0.28 Kg/Ha POE): 5%; % Inhibition Corn ([5]; C:A Ratio 80, ACCENT 0.56 Kg/Ha POE): 40%; % Inhibition Corn ([5]; C:A Ratio 80, BEACON 0.28 Kg/Ha POE): 20%; % Inhibition Corn ([5]; C:A Ratio 160, ACCENT 0.56 Kg/Ha POE): 60%; % Inhibition Corn ([5]; C:A Ratio 160, BEACON 0.28 Kg/Ha POE): 20%
O=C1OC(=O)c2cccc3cccc1c23 [Antidote No. 5, 1H,3H-Naphtho<1,8-cd>pyran-1,3-dione] |  |  |  |  |  |  |  |  |  |  |  |  |  |  |  |  |  |  |  |  | giant foxtail control ([3]; XRD-498 + OP insecticides, Examples 24-27): reduction in giant foxtail control
